Measurements published in patent publication US11596639B2, “Substituted indole Mcl-1 inhibitors” (Vanderbilt University, priority 2016, dated 2023).
pKi: −log10 of the molar value. Like-named read-outs stand apart in the source and are kept apart here.

Columns and labels:
Mcl-1 = Mcl-1 (Homo sapiens (Human), UniProt Q07820); assay: TR-FRET binding assay, FITC-Bak peptide and MBP-tagged Mcl-1; details: read-out: Ki for Inhibition of Mcl-1 by TR-FRET assay
Description: Compounds are diluted in DMSO in a 16-point, semilog serial dilution scheme. […] The plate was mixed and incubated for 3 hours at room temperature. […] TR-FRET signal is plotted and IC50 and Ki values are calculated in the same manner as the fluorescence polarization anisotropy based competition assays.

[1] = system: H929 human cancer cell lines; assay: Cellular viability / proliferation (Cell TiterGlo, 72 h); type: cell-based
Summary of the method: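 Compounds were added as 2-fold serial dilutions from 50 μM (final DMSO <1%) to H929 cells seeded 1,000 per well in 10% FBS medium one day earlier.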

[2] = Homo sapiens, NCI-H929, 72 h, read-out: GI50 on cellular proliferation of H929 human cancer cell lines, H929 cells, 72 h, Cell TiterGlo, 10% FBS

Sequence of Mcl-1 (Q07820 172-327): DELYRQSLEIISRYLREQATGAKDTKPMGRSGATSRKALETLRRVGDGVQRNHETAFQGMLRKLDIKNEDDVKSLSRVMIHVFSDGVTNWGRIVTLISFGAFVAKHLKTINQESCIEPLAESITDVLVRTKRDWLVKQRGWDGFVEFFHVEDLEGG

Compound | pKi (Mcl-1) | GI50 ([1]; H929 cells, 72 h, Cell TiterGlo, 10% FBS, read-out: GI50 on cellular proliferation of H929 human cancer cell lines) | GI50 [1, 2]
Cc1cc(OCCCc2c3n(c4c(-c5c(C)nn(C)c5C)c(Cl)ccc24)[C@H](C)CN(c2cn(C[C@H]4CCC[N+]4(C)C)c4ccc(C(=O)O)cc24)C3=O)cc(C)c1Cl [Example 667, (R)-2-((5-carboxy-3-((R)-7-chloro-10-(3-(4-chloro-3,5-dimethylphenoxy)propyl)-4-methyl-1-oxo-6-(1,3,5-trimethyl-1H-pyrazol-4-yl)-3,4-dihydropyrazino[1,2-a]indol-2(1H)-yl)-1H-indol-1-yl)methyl)-1,1-dimethylpyrrolidin-1-ium] | > 9.70 | 8200 nM | 
COc1cc(N2C[C@@H](C)n3c(c(CCCOc4cc(C)c(Cl)c(C)c4)c4ccc(Cl)c(-c5c(C)nn(C)c5C)c43)C2=O)c2c(c1)cc(C(=O)O)n2Cc1cccc(C)n1 [Example 536, (R)-7-(7-Chloro-10-(3-(4-chloro-3,5-dimethylphenoxy)propyl)-4-methyl-1-oxo-6-(1,3,5-trimethyl-1H-pyrazol-4-yl)-3,4-dihydropyrazino[1,2-a]indol-2(1H)-yl)-5-methoxy-1-((6-methylpyridin-2-yl)methyl)-1H-indole-2-carboxylic acid] | > 9.70 |  | < 200 nM
Cc1cccc(Cn2c(C(=O)O)cc3cc(OCCN(C)C)cc(N4C[C@@H](C)n5c(c(CCCOc6cc(C)c(Cl)c(C)c6)c6ccc(Cl)c(-c7c(C)ncnc7C)c65)C4=O)c32)n1 [Example 566, (R)-7-(7-chloro-10-(3-(4-chloro-3,5-dimethylphenoxy)propyl)-6-(4,6-dimethylpyrimidin-5-yl)-4-methyl-1-oxo-3,4-dihydropyrazino[1,2-a]indol-2(1H)-yl)-5-(2-(dimethylamino)ethoxy)-1-((6-methylpyridin-2-yl)methyl)-1H-indole-2-carboxylic acid] | > 9.70 |  | 410 nM
Cc1ccnc(Cn2c(C(=O)O)cc3cc(OCCN(C)C)cc(N4C[C@@H](C)n5c(c(CCCOc6cc(C)c(Cl)c(C)c6)c6ccc(Cl)c(-c7c(C)ncnc7C)c65)C4=O)c32)c1 [Example 584, (R)-7-(7-chloro-10-(3-(4-chloro-3,5-dimethylphenoxy)propyl)-6-(4,6-dimethylpyrimidin-5-yl)-4-methyl-1-oxo-3,4-dihydropyrazino[1,2-a]indol-2(1H)-yl)-5-(2-(dimethylamino)ethoxy)-1-((4-methylpyridin-2-yl)methyl)-1H-indole-2-carboxylic acid] | > 9.70 |  | 1000 nM
Cc1cc(OCCCc2c3n(c4c(-c5c(C)cc(O)cc5C)c(Cl)ccc24)[C@H](C)CNC3=O)cc(C)c1Cl [Example 488, (R)-7-chloro-10-(3-(4-chloro-3,5-dimethylphenoxy)propyl)-6-(4-hydroxy-2,6-dimethylphenyl)-4-methyl-3,4-dihydropyrazino[1,2-a]indol-1(2H)-one] | 7.41 |  | 8700 nM
Cc1cc(OCCCc2c3n(c4c(-c5c(C)nn(C)c5C)c(Cl)ccc24)[C@H](C)CN(c2cc(NC(=O)CN4CCCCC4)cc4c(C(=O)O)cn(C)c24)C3=O)cc(C)c1Cl [Example 533, (R)-7-(7-Chloro-10-(3-(4-chloro-3,5-dimethylphenoxy)propyl)-4-methyl-1-oxo-6-(1,3,5-trimethyl-1H-pyrazol-4-yl)-3,4-dihydropyrazino[1,2-a]indol-2(1H)-yl)-1-methyl-5-(2-(piperidin-1-yl)acetamido)-1H-indole-3-carboxylic acid] | 9.16 |  | 1300 nM
Cc1cc(OCCCc2c3n(c4c(-c5c(C)nn(C)c5C)c(Cl)ccc24)[C@H](C)CN(c2cc(OC4CCN(C)C4)cc4cc(C(=O)O)n(C)c24)C3=O)cc(C)c1Cl (stereo partly drawn) [Example 521, 7-((R)-7-chloro-10-(3-(4-chloro-3,5-dimethylphenoxy)propyl)-4-methyl-1-oxo-6-(1,3,5-trimethyl-1H-pyrazol-4-yl)-3,4-dihydropyrazino[1,2-a]indol-2(1H)-yl)-1-methyl-5-((1-methylpyrrolidin-3-yl)oxy)-1H-indole-2-carboxylic acid] | > 9.70 |  | 610 nM
COCCn1cc(N2C[C@@H](C)n3c(c(CCCOc4cc(C)c(Cl)c(C)c4)c4ccc(Cl)c(-c5c(C)nn(C)c5C)c43)C2=O)c2cc(-c3ncn(CCN4CCN(C)CC4)n3)ccc21 [Example 602, (R)-7-Chloro-10-(3-(4-chloro-3,5-dimethylphenoxy)propyl)-2-(1-(2-methoxyethyl)-5-(1-(2-(4-methylpiperazin-1-yl)ethyl)-1H-1,2,4-triazol-3-yl)-1H-indol-3-yl)-4-methyl-6-(1,3,5-trimethyl-1H-pyrazol-4-yl)-3,4-dihydropyrazino[1,2-a]indol-1(2H)-one] | 8.23 |  | 430 nM
Cc1cc(OCCCc2c3n(c4c(-c5c(C)nc(CN6CCOCC6)nc5C)c(Cl)ccc24)[C@H](C)CN(c2cn(C)c4ccc(-c5ncn(C)n5)cc24)C3=O)cc(C)c1Cl [Example 503, (R)-7-chloro-10-(3-(4-chloro-3,5-dimethylphenoxy)propyl)-6-(4,6-dimethyl-2-(morpholinomethyl)pyrimidin-5-yl)-4-methyl-2-(1-methyl-5-(1-methyl-1H-1,2,4-triazol-3-yl)-1H-indol-3-yl)-3,4-dihydropyrazino[1,2-a]indol-1(2H)-one] | 8.43 |  | < 200 nM
Cc1cc(OCCCc2c3n(c4c(-c5c(C)nn(C)c5C)c(Cl)ccc24)[C@H](C)CN(c2cc(CN4CCOCC4)cc4c(C(=O)O)cn(C)c24)C3=O)cc(C)c1Cl [Example 549, (R)-7-(7-chloro-10-(3-(4-chloro-3,5-dimethylphenoxy)propyl)-4-methyl-1-oxo-6-(1,3,5-trimethyl-1H-pyrazol-4-yl)-3,4-dihydropyrazino[1,2-a]indol-2(1H)-yl)-1-methyl-5-(morpholinomethyl)-1H-indole-3-carboxylic acid] | 9.47 |  | 340 nM
Cc1cc(OCCCc2c3n(c4c(-c5c(C)nn(C)c5C)c(Cl)ccc24)[C@H](C)CN(c2cc(OC(F)(F)F)cc4cc(C(=O)O)n(C)c24)C3=O)cc(C)c1Cl [Example 479, (R)-7-(7-chloro-10-(3-(4-chloro-3,5-dimethylphenoxy)propyl)-4-methyl-1-oxo-6-(1,3,5-trimethyl-1H-pyrazol-4-yl)-3,4-dihydropyrazino[1,2-a]indol-2(1H)-yl)-1-methyl-5-(trifluoromethoxy)-1H-indole-2-carboxylic acid] | 9.02 |  | 1500 nM
CC(=O)N1CCN(c2ccnc(Cn3c(C(=O)O)cc4cc(C)cc(N5C[C@@H](C)n6c(c(CCCOc7cc(C)c(Cl)c(C)c7)c7ccc(Cl)c(-c8c(C)nn(C)c8C)c76)C5=O)c43)c2)CC1 [Example 552, (R)-1-((4-(4-acetylpiperazin-1-yl)pyridin-2-yl)methyl)-7-(7-chloro-10-(3-(4-chloro-3,5-dimethylphenoxy)propyl)-4-methyl-1-oxo-6-(1,3,5-trimethyl-1H-pyrazol-4-yl)-3,4-dihydropyrazino[1,2-a]indol-2(1H)-yl)-5-methyl-1H-indole-2-carboxylic acid] | > 9.70 |  | 4600 nM
COCCn1cc(N2C[C@@H](C)n3c(c(CCCOc4cc(C)c(Cl)c(C)c4)c4ccc(Cl)c(-c5c(C)nc(CN6CCN(C)CC6)nc5C)c43)C2=O)c2cc(C(=O)O)ccc21 [Example 559, (R)-3-(7-chloro-10-(3-(4-chloro-3,5-dimethylphenoxy)propyl)-6-(4,6-dimethyl-2-((4-methylpiperazin-1-yl)methyl)pyrimidin-5-yl)-4-methyl-1-oxo-3,4-dihydropyrazino[1,2-a]indol-2(1H)-yl)-1-(2-methoxyethyl)-1H-indole-5-carboxylic acid] | > 9.70 |  | 430 nM
Cc1cc(OCCCc2c3n(c4c(-c5c(C)nn(C)c5C)c(Cl)ccc24)[C@H](C)CN(c2cn(CCN(C)C)c4ccc(C(=O)O)cc24)C3=O)cc(C)c1Cl [Example 510, (R)-3-(7-Chloro-10-(3-(4-chloro-3,5-dimethylphenoxy)propyl)-4-methyl-1-oxo-6-(1,3,5-trimethyl-1H-pyrazol-4-yl)-3,4-dihydropyrazino[1,2-a]indol-2(1H)-yl)-1-(2-(dimethylamino)ethyl)-1H-indole-5-carboxylic acid] | > 9.70 |  | 240 nM
COC1CCN(Cc2cc(N3C[C@@H](C)n4c(c(CCCOc5cc(C)c(Cl)c(C)c5)c5ccc(Cl)c(-c6c(C)nn(C)c6C)c54)C3=O)c3c(c2)cc(C(=O)O)n3C)CC1 [Example 649, (R)-7-(7-chloro-10-(3-(4-chloro-3,5-dimethylphenoxy)propyl)-4-methyl-1-oxo-6-(1,3,5-trimethyl-1H-pyrazol-4-yl)-3,4-dihydropyrazino[1,2-a]indol-2(1H)-yl)-5-((4-methoxypiperidin-1-yl)methyl)-1-methyl-1H-indole-2-carboxylic acid] | > 9.70 |  | < 200 nM
Cc1cccc(Cn2cnc(-c3ccc4c(c3)c(N3C[C@@H](C)n5c(c(CCCOc6cc(C)c(Cl)c(C)c6)c6ccc(Cl)c(-c7c(C)nn(C)c7C)c65)C3=O)cn4CC(=O)N(C)C)n2)n1 [Example 639, (R)-2-(3-(7-Chloro-10-(3-(4-chloro-3,5-dimethylphenoxy)propyl)-4-methyl-1-oxo-6-(1,3,5-trimethyl-1H-pyrazol-4-yl)-3,4-dihydropyrazino[1,2-a]indol-2(1H)-yl)-5-(1-((6-methylpyridin-2-yl)methyl)-1H-1,2,4-triazol-3-yl)-1H-indol-1-yl)-N,N-dimethylacetamide] | 8.38 |  | 900 nM
